Assay results as given in US8399465B2, “Compounds with two fused bicyclic heteroaryl moieties as modulators of leukotriene A4 hydrolase” (Janssen Pharmaceutica NV, priority 2009, dated 2013).
Where a name gives a salt, the structure may show the parent alone.

Key:
[1] = test system: LTB4 production in murine blood (LTA4H); experiment: LTB4 production by calcium ionophore-stimulated murine blood for LTA4H inhibitor activity; assay type: cell-based, CD-1 mice; settings: Mus musculus; murine blood diluted 1 in 15, A23187 stimulated; single determination or average; mark after value = form tested: ′ free base, ″ hydrochloride, ^ formate; read-out: IC50
Method: Assay 2: LTB4 Production by Calcium Ionophore-Stimulated Murine Blood for LTA4H Inhibitor Activity
CD-1 mice were sacrificed, and blood was collected in heparin-containing syringes by cardiac puncture. […] After the microtiter plate contents were incubated for 15 min at 37° C. in a humidified incubator, calcium ionophore A23187 (Sigma Chemical Co., St. Louis, Mo.) was added to each sample well (final concentration=7 μg/mL). The incubation was continued under the same conditions for an additional 30 min to allow LTB4 formation. The reaction was terminated by centrifugation (833×g, 10 min at 4° C.), and supernatants were analyzed for LTB4 by a commercially available enzyme-linked immunoassay (Cayman Chemical Co.) according to the manufacturer's instructions. Positive controls, under essentially identical conditions but without addition of an inhibitor compound, and negative unstimulated controls, containing all assay components except calcium ionophore, were routinely run in each experiment. […] The values presented here are the result of a single determination or an average of two or more determinations.

[2] = target: T1, recombinant human LTA4 hydrolase (rhLTA4H) (Homo sapiens, UniProt P09960); experiment: Recombinant human LTA4 hydrolase assay for LTA4 hydrolase inhibitor activity; assay type: biochemical; settings: rhLTA4H, LTB4 by immunoassay; single determination or average of two or more; mark after value = form tested: ′ free base, ″ hydrochloride, ^ formate; read-out: IC50
T1 construct: made in house; host or cells: Spodoptera frugiperda (Sf-9) cells, baculovirus (pFastBac1)
T1 sequence (P09960 1-611): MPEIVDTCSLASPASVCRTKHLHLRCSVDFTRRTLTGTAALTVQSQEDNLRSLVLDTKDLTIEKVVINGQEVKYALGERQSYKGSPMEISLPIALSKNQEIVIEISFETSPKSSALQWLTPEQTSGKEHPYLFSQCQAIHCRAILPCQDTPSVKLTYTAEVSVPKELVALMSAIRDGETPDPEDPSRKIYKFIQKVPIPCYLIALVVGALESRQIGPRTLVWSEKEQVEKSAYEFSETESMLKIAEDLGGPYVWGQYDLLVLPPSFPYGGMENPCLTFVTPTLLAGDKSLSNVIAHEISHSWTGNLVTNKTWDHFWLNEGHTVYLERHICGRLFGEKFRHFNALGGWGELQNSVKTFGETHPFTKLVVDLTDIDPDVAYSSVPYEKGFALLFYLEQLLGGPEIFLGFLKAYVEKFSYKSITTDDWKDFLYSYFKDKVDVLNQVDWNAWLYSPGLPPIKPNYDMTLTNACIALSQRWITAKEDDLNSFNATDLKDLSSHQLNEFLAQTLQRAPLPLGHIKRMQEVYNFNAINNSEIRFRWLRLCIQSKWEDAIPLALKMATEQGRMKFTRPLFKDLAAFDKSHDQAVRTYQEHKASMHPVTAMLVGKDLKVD
Method in brief: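 Baculovirus/Sf-9-expressed human LTA4H (10 ng) was preincubated 10 min at rt with compound in assay buffer (10% DMSO in compound dilution), then reacted 30 min at rt with LTA4 free acid made from its methyl ester. LTB4 produced was measured by ELISA after dilution; IC50 from non-linear regression, single or averaged determinations.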

SMILES	IC50 [1]	IC50 [2]
c1ccc2sc(Oc3ccc4c(CN5C[C@@H]6C[C@H]5CN6)c[nH]c4c3)nc2c1 [Example 52, (1S,4S)-2-[3-(2,5-Diaza-bicyclo[2.2.1]hept-2-ylmethyl)-1H-indol-6-yloxy]-benzothiazole 2HCl]	411 nM	23 nM
CC(=O)NC1CCN(Cc2c[nH]c3cc(Oc4nc5ccccc5s4)ccc23)CC1 [Example 53, N-{1-[6-(Benzothiazol-2-yloxy)-1H-indol-3-ylmethyl]-piperidin-4-yl}-acetamide]	204 nM	8 nM
CC(=O)N1CC2CN(Cc3c[nH]c4cc(Oc5nc6ccccc6s5)ccc34)CC2C1 (stereo not shown) [Example 54, 1-{5-[6-(Benzothiazol-2-yloxy)-1H-indol-3-ylmethyl]-hexahydro-pyrrolo[3,4-c]pyrrol-2-yl}-ethanone]	165 nM	4 nM
CC(=O)N1C[C@@H]2C[C@H]1CN2Cc1c[nH]c2cc(Oc3nc4ccccc4s3)ccc12 [Example 55, (1S,4S)-1-{5-[6-(Benzothiazol-2-yloxy)-1H-indol-3-ylmethyl]-2,5-diaza-bicyclo[2.2.1]hept-2-yl}-ethanone]	129 nM	3 nM
Cc1ccnc2nc(Oc3ccc4c(CN5CCOCC5)c[nH]c4c3)sc12 [Example 57, 7-Methyl-2-(3-morpholin-4-ylmethyl-1H-indol-6-yloxy)-thiazolo[4,5-b]pyridine]	444 nM	93 nM
CCn1c(CN2CCCC2)cc2cc(Oc3nc4ccccc4s3)ccc21 [Example 64, 2-(1-Ethyl-2-pyrrolidin-1-ylmethyl-1H-indol-5-yloxy)-benzothiazole]	2430 nM	93 nM
c1ccc2sc(Oc3ccc4[nH]c(CN5CCCCC5)cc4c3)nc2c1 [Example 65, 2-(2-Piperidin-1-ylmethyl-1H-indol-5-yloxy)-benzothiazole]	1110 nM	100 nM
c1ccc2sc(Oc3ccc4[nH]c(CN5CCCC5)cc4c3)nc2c1 [Example 66, 2-(2-Pyrrolidin-1-ylmethyl-1H-indol-5-yloxy)-benzothiazole]	1130 nM	30 nM
c1ccc2sc(Oc3ccc4cc(CN5CCCCC5)[nH]c4c3)nc2c1 [Example 67, 2-(2-Piperidin-1-ylmethyl-1H-indol-6-yloxy)-benzothiazole]	295 nM	34 nM
c1ccc2sc(Oc3ccc4cc(CN5CCCC5)[nH]c4c3)nc2c1 [Example 68, 2-(2-Pyrrolidin-1-ylmethyl-1H-indol-6-yloxy)-benzothiazole]	450 nM	20 nM
NC(=O)C1CCN(Cc2cc3ccc(Oc4nc5ccccc5s4)cc3[nH]2)CC1 [Example 69, 1-[6-(Benzothiazol-2-yloxy)-1H-indol-2-ylmethyl]-piperidine-4-carboxylic acid amide]	1220 nM	47 nM
CC(=O)N[C@H]1C[C@H]2CC[C@@H](C1)N2Cc1cc2ccc(Oc3nc4ccccc4s3)cc2[nH]1 [Example 70, meso-endo-N-{8-[6-(Benzothiazol-2-yloxy)-1H-indol-2-ylmethyl]-8-aza-bicyclo[3.2.1]oct-3-yl}-acetamide]	76 nM	1 nM
c1cnc2nc(Oc3ccc4cc(CN5CCCCC5)[nH]c4c3)sc2c1 [Example 71, 2-(2-Piperidin-1-ylmethyl-1H-indol-6-yloxy)-thiazolo[4,5-b]pyridine]	87 nM	17 nM
CC(=O)N[C@H]1C[C@H]2CC[C@@H](C1)N2Cc1cc2ccc(Oc3nc4ncccc4s3)cc2[nH]1 [Example 72, meso-endo-N-{8-[6-(Thiazolo[4,5-b]pyridin-2-yloxy)-1H-indol-2-ylmethyl]-8-aza-bicyclo[3.2.1]oct-3-yl}-acetamide]	100 nM	27 nM
O=C(O)C1CCN(CCc2coc3cc(Oc4nc5ccccc5s4)ccc23)CC1 [Example 80, 1-{2-[6-(Benzothiazol-2-yloxy)-benzofuran-3-yl]-ethyl}-piperidine-4-carboxylic acid]	350 nM	48 nM
O=C(O)CN[C@H]1C[C@H]2CC[C@@H](C1)N2Cc1cc2ccc(Oc3nc4ccccc4s3)cc2o1 [Example 81, meso-endo-{8-[6-(Benzothiazol-2-yloxy)-benzofuran-2-ylmethyl]-8-aza-bicyclo[3.2.1]oct-3-ylamino}-acetic acid]	450 nM	29 nM
CC(=O)N[C@H]1C[C@H]2CC[C@@H](C1)N2Cc1cc2cc(Oc3nc4ccccc4s3)ccc2o1 [Example 83, meso-endo-N-{8-[5-(Benzothiazol-2-yloxy)-benzofuran-2-ylmethyl]-8-aza-bicyclo[3.2.1]oct-3-yl}-acetamide formate]	119 nM	70 nM
CC(=O)N[C@H]1C[C@H]2CC[C@@H](C1)N2Cc1cc2cc(Oc3nc4c(F)cccc4s3)ccc2o1 [Example 85, meso-endo-N-{8-[5-(4-Fluoro-benzothiazol-2-yloxy)-benzofuran-2-ylmethyl]-8-aza-bicyclo[3.2.1]oct-3-yl}-acetamide]	210 nM	17 nM
c1cnc2nc(Oc3ccc4oc(CN5CCCCC5)cc4c3)sc2c1 [Example 86, 2-(2-Piperidin-1-ylmethyl-benzofuran-5-yloxy)-thiazolo[4,5-b]pyridine]	85 nM	68 nM
CC(=O)N[C@H]1C[C@H]2CC[C@@H](C1)N2Cc1cc2cc(Oc3nc4ncccc4s3)ccc2o1 [Example 87, meso-endo-N-{8-[5-(Thiazolo[4,5-b]pyridin-2-yloxy)-benzofuran-2-ylmethyl]-8-aza-bicyclo[3.2.1]oct-3-yl}-acetamide]	77 nM	35 nM
NC(=O)C1CCN(Cc2cc3cc(Oc4nc5ncccc5s4)ccc3o2)CC1 [Example 88, 1-[5-(Thiazolo[4,5-b]pyridin-2-yloxy)-benzofuran-2-ylmethyl]-piperidine-4-carboxylic acid amide]	320 nM	11 nM
NC(=O)N1CC2CN(Cc3cc4cc(Oc5nc6ncccc6s5)ccc4o3)CC2C1 (stereo not shown) [Example 91, 5-[5-(Thiazolo[4,5-b]pyridin-2-yloxy)-benzofuran-2-ylmethyl]-hexahydro-pyrrolo[3,4-c]pyrrole-2-carboxylic acid amide]	97 nM	88 nM
CS(=O)(=O)C1CCN(Cc2cc3cc(Oc4nc5ncccc5s4)ccc3o2)CC1 [Example 92, 2-[2-(4-Methanesulfonyl-piperidin-1-ylmethyl)-benzofuran-5-yloxy]-thiazolo[4,5-b]pyridine]	400 nM	51 nM
NC(=O)N1C[C@H]2CC[C@@H](C1)N2Cc1cc2cc(Oc3nc4ncccc4s3)ccc2o1 [Example 94, meso-8-[5-(Thiazolo[4,5-b]pyridin-2-yloxy)-benzofuran-2-ylmethyl]-3,8-diaza-bicyclo[3.2.1]octane-3-carboxylic acid amide]	202 nM	102 nM
CC(=O)N1C[C@H]2C[C@@H]1CN2Cc1cc2cc(Oc3nc4ncccc4s3)ccc2o1 [Example 102, (1R,4R)-1-{5-[5-(Thiazolo[4,5-b]pyridin-2-yloxy)-benzofuran-2-ylmethyl]-2,5-diaza-bicyclo[2.2.1]hept-2-yl}-ethanone]	293 nM	12 nM
NC(=O)C1CCN(Cc2cc3cc(Oc4nc5ccccc5s4)ccc3o2)CC1 [Example 105, 1-[5-(Benzothiazol-2-yloxy)-benzofuran-2-ylmethyl]-piperidine-4-carboxylic acid amide]	488 nM	97 nM
